This note sets out measurements from patent US10570167B2 (Calithera Biosciences, Inc., priority 2016, dated 2020).

The structures appear in SMILES notation.

In the assay the target is recombinant CD73 (Homo sapiens (Human), UniProt P21589). Description: Inhibition of soluble recombinant CD73 enzyme activity in vitro (AMP hydrolysis, Malachite Green phosphate detection). Type of assay: biochemical. To be noted: recombinant CD73 0.5 nM, AMP 50 μM, 30 minutes at room temperature. On the procedure: Inhibition of the CD73 Enzyme In Vitro
recombinant CD73, sequence (P21589 27-547): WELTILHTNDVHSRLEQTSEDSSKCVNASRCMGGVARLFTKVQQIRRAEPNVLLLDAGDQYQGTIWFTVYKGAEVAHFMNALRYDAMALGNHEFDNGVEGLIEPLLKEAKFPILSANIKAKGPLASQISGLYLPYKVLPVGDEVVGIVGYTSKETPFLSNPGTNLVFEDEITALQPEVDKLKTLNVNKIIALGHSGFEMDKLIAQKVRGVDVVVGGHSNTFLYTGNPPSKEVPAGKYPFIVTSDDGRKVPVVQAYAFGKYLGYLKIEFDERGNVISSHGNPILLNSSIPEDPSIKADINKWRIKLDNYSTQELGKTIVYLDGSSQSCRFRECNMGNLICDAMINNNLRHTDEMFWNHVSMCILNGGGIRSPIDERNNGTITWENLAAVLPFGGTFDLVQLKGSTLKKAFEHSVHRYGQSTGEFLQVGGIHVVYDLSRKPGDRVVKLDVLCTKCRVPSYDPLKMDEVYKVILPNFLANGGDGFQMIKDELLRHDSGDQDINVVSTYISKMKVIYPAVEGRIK
The concentration of inorganic phosphate was determined using a phosphate standard curve.
On to `N#Cc1ccc(CC(OC[C@H]2O[C@@H](n3cnc4c(N)nc(Cl)nc43)[C@@H](F)[C@@H]2O)(C(=O)O)C(=O)O)cc1`, for which the 50% inhibitory concentration (IC50) turned out to be 97 nM.

Regarding `Nc1ncnc2c1ncn2[C@@H]1O[C@H](COC(Cc2ccccc2)(C(=O)O)C(=O)O)[C@@H](O)[C@H]1F`, the IC50 stood at 21600 nM.

As for `CN(C)C(=O)c1cccc(CC(OC[C@H]2O[C@@H](n3cnc4c(N)nc(Cl)nc43)[C@@H](F)[C@@H]2O)(C(=O)O)C(=O)O)c1`, the IC50 is 521 nM. Next, `Nc1nc(Cl)nc2c1ncn2[C@@H]1O[C@H](COC(Cc2cccc(F)c2)(C(=O)O)C(=O)O)[C@@H](O)[C@@H]1F`: 273 nM; `Nc1nc(Cl)nc2c1ncn2[C@@H]1O[C@H](COC(Cc2ccc(-c3ccccc3C(=O)O)cc2)(C(=O)O)C(=O)O)[C@@H](O)[C@@H]1F` [Example 151]: 31 nM.

Turning to `Nc1nc(Cl)nc2c1ncn2[C@@H]1O[C@H](COC(Cc2ccc(-c3cccc(F)c3O)cc2)(C(=O)O)C(=O)O)[C@@H](O)[C@@H]1F` [Example 181], the 50% inhibitory concentration (IC50) is 9 nM. For `Nc1nc(Cl)nc2c1ncn2[C@@H]1O[C@H](COC(Cc2ccc(-c3ccccn3)cc2)(C(=O)O)C(=O)O)[C@@H](O)[C@@H]1F` [Example 176] the value was 56 nM. On to `C[C@@H]1[C@@H](O)[C@H](n2cnc3c(N)nc(Cl)nc32)O[C@@H]1COC(Cc1ccccc1)(C(=O)O)C(=O)O` [Example 168], for which the half-maximal inhibitory concentration (IC50) is 1750 nM. Next, `Cc1noc(C)c1-c1ccc(CC(OC[C@H]2O[C@@H](n3cnc4c(N)nc(Cl)nc43)[C@@H](F)[C@@H]2O)(C(=O)O)C(=O)O)cc1` [Example 157]: 34 nM; `Nc1nc(Cl)nc2c1ncn2[C@@H]1O[C@H](COC(Cc2ccccc2)(C(=O)O)C(=O)O)[C@@H](F)[C@H]1O` [Example 165]: 8930 nM; `CCOC(=O)C(OC[C@H]1O[C@@H](n2cnc3c(N)nc(Cl)nc32)[C@H](O)[C@@H]1O)c1nnn[nH]1` (some centres unmarked) [Example 182]: above 50000 nM. Consider `Nc1nc(Cl)nc2c1ncn2[C@@H]1O[C@H](COC(Cc2ccc(C(F)(F)F)cc2)(C(=O)O)C(=O)O)[C@@H](O)[C@@H]1F` [Example 20, 2-(((2R,3R,4S,5R)-5-(6-amino-2-chloro-9H-purin-9-yl)-4-fluoro-3-hydroxytetrahydrofuran-2-yl)methoxy)-2-(4-(trifluoromethyl)benzyl) malonic acid], for which the 50% inhibitory concentration (IC50) was 109 nM.

Consider `C=C1[C@@H](O)[C@H](n2cnc3c(N)nc(Cl)nc32)O[C@@H]1COC(Cc1ccccc1)(C(=O)O)C(=O)O` [Example 154], for which the IC50 was found to be 1800 nM. For `Nc1nc(Cl)nc2c1ncn2[C@@H]1O[C@H](COC(Cc2ccc(-c3ccc(C(=O)O)cc3)cc2)(C(=O)O)C(=O)O)[C@@H](O)[C@@H]1F` [Example 155] the value was 47 nM; for `CCOC(=O)c1ccccc1-c1ccc(CC(OC[C@H]2O[C@@H](n3cnc4c(N)nc(Cl)nc43)[C@@H](F)[C@@H]2O)(C(=O)O)C(=O)O)cc1` [Example 175], 18 nM.

As to `Nc1nc(Cl)nc2c1ncn2[C@@H]1O[C@H](COC(Cc2ccc(-c3ccccc3O)cc2)(C(=O)O)C(=O)O)[C@@H](O)[C@@H]1F` [Example 160], the IC50 came out at 12 nM. For `CC(C)(C)OC(=O)Nc1nc(Cl)nc2c1ncn2[C@@H]1O[C@H](COC(Cc2ccccc2)(C(=O)O)c2nnnn2C(C)(C)c2ccccc2)[C@@H](O)[C@@H]1F` (some centres unmarked) [Example 188] the value was 11500 nM. Take `C[C@@]1(O)[C@@H](COC(Cc2ccccc2)(C(=O)O)C(=O)O)O[C@@H](n2cnc3c(N)nc(Cl)nc32)[C@@H]1O` [Example 149]: the IC50 was 51 nM. Turning to `Nc1nc(Cl)nc2c1ncn2[C@@H]1O[C@H](COC(Cc2ccccc2)(C(=O)O)C(=O)O)[C@@H](O)[C@@H]1F` [Example 6, 2-(((2R,3R,4S,5R)-5-(6-amino-2-chloro-9H-purin-9-yl)-4-fluoro-3-hydroxytetrahydro-furan-2-yl)methoxy)-2-benzylmalonic acid], the IC50 was 130 nM.

Turning to `Nc1nc(Cl)nc2c1ncn2[C@@H]1O[C@H](COC(Cc2cccc(OC(F)(F)F)c2)(C(=O)O)C(=O)O)[C@@H](O)[C@@H]1F` [Example 15, 2-(((2R,3R,4S,5R)-5-(6-amino-2-chloro-9H-purin-9-yl)-4-fluoro-3-hydroxytetrahydrofuran-2-yl)methoxy)-2-(3-(trifluoromethoxy)benzyl) malonic acid], the IC50 is 308 nM. In the case of `C[C@H]1[C@@H](O)[C@H](n2cnc3c(N)nc(Cl)nc32)O[C@@H]1COC(Cc1ccccc1)(C(=O)O)C(=O)O` [Example 167], the IC50 is above 40000 nM. In the case of `Nc1nc(Cl)nc2c1ncn2[C@@H]1O[C@H](COC(C(=O)O)C(=O)O)[C@@H](O)[C@@H]1F` [Example 5], the IC50 is 13100 nM. Next, `CCOC(=O)C(Cc1ccccc1)(OC[C@H]1O[C@@H](n2cnc3c(N)nc(Cl)nc32)[C@@H](F)[C@@H]1O)c1nn[nH]n1` (some centres unmarked) [Example 193]: above 50000 nM; `Nc1nc(Cl)nc2c1ncn2[C@@H]1O[C@H](COC(Cc2ccc(OC(F)(F)F)cc2)(C(=O)O)C(=O)O)[C@@H](O)[C@@H]1F`: 57 nM; `Nc1nc(Cl)nc2c1ncn2[C@@H]1O[C@H](COC(Cc2cccc(C(=O)O)c2)(C(=O)O)C(=O)O)[C@@H](O)[C@@H]1F`: 119 nM. For `Cc1[nH]ncc1-c1ccc(CC(OC[C@H]2O[C@@H](n3cnc4c(N)nc(Cl)nc43)[C@@H](F)[C@@H]2O)(C(=O)O)C(=O)O)cc1` [Example 177], the IC50 is 48 nM. `Nc1nc(Cl)nc2c1ncn2[C@@H]1O[C@H](COC(Cc2ccc(F)cc2)(C(=O)O)C(=O)O)[C@@H](O)[C@@H]1F`: the IC50 came to 343 nM.

Turning to `Nc1nc(Cl)nc2c1ncn2[C@@H]1O[C@H](COC(Cc2ccc(N3CCCCS3(=O)=O)cc2)(C(=O)O)C(=O)O)[C@@H](O)[C@@H]1F` [Example 178], the IC50 is 16 nM.

Regarding `N#Cc1cccc(CC(OC[C@H]2O[C@@H](n3cnc4c(N)nc(Cl)nc43)[C@@H](F)[C@@H]2O)(C(=O)O)C(=O)O)c1`, the half-maximal inhibitory concentration (IC50) stood at 531 nM.

On to `Nc1cccc(CC(OC[C@H]2O[C@@H](n3cnc4c(N)nc(Cl)nc43)[C@@H](F)[C@@H]2O)(C(=O)O)C(=O)O)c1`, for which the IC50 was found to be 218 nM. Turning to `Nc1nc(Cl)nc2c1ncn2[C@@H]1O[C@H](COC(Cc2ccc(CO)cc2)(C(=O)O)C(=O)O)[C@@H](O)[C@@H]1F`, the IC50 amounted to 160 nM. With `CCOC(=O)C(Cc1ccc(-c2ccccc2)cc1)(OC[C@H]1O[C@@H](n2cnc3c(N)nc(Cl)nc32)[C@@H](F)[C@@H]1O)C(=O)O` (single isomer, unassigned) [84 Isomer 2], the IC50 came out at 8260 nM.

In the case of `Nc1nc(Cl)nc2c1ncn2[C@@H]1O[C@H](COC(Cc2ccc(Cl)nc2)(C(=O)O)C(=O)O)[C@@H](O)[C@@H]1F` [Example 8, 2-(((2R,3R,4S,5R)-5-(6-amino-2-chloro-9H-purin-9-yl)-4-fluoro-3-hydroxytetrahydro-furan-2-yl)methoxy)-2-((6-chloropyridin-3-yl)methyl)malonic acid], the IC50 was determined as 363 nM. Turning to `C[C@@]1(F)C[C@@H](COC(Cc2ccc(C(=O)O)cc2)(C(=O)O)C(=O)O)O[C@H]1n1cnc2c(N)nc(Cl)nc21` [Example 180], the IC50 was above 100000 nM. For `Nc1nc(Cl)nc2c1ccn2[C@@H]1O[C@H](COC(Cc2ccccc2)(C(=O)O)C(=O)O)[C@@H](O)[C@@H]1F` [Example 169] the value was 119 nM; for `Nc1nc(Cl)nc2c1ncn2[C@@H]1O[C@H](COC(Cc2ccc(-c3ccncc3)cc2)(C(=O)O)C(=O)O)[C@@H](O)[C@@H]1F` [Example 156], 86 nM. Next, `[N-]=[N+]=Nc1nc(N)c2ncn([C@@H]3O[C@H](COC(Cc4cccc(-c5nnn[nH]5)c4)(C(=O)O)C(=O)O)[C@@H](O)[C@@H]3F)c2n1`: 1040 nM. Regarding `COc1cccc(CC(OC[C@H]2O[C@@H](n3cnc4c(N)nc(Cl)nc43)[C@@H](F)[C@@H]2O)(C(=O)O)C(=O)O)c1`, the IC50 was determined as 839 nM. `Nc1nc(Cl)nc2c1ncn2[C@@H]1O[C@H](COC(Cc2ccc(N3CCCNC3=O)cc2)(C(=O)O)C(=O)O)[C@@H](O)[C@@H]1F` [Example 179]: the IC50 turned out to be 9 nM. Turning to `Nc1nc(Cl)nc2c1ncn2[C@@H]1O[C@H](COC(Cc2ccccc2)(C(=O)O)C(=O)O)[C@H](N)[C@H]1O` [Example 166], the IC50 was above 10000 nM. Turning to `CCOC(=O)C(Cc1ccc(C(=O)OC)cc1)(OC[C@H]1O[C@@H](n2cnc3c(N)nc(Cl)nc32)[C@H](O)[C@@H]1O)c1nn[nH]n1` (some centres unmarked) [Example 195], the concentration for half-maximal inhibition (IC50) is above 50000 nM. In the case of `C[C@@]1(O)[C@H](O)[C@@H](COC(Cc2ccccc2)(C(=O)O)c2nn[nH]n2)O[C@H]1n1cnc2c(N)nc(Cl)nc21` (some centres unmarked) [Example 202], the IC50 is above 50000 nM. As for `CS(=O)(=O)c1ccc(-c2ccc(CC(OC[C@H]3O[C@@H](n4cnc5c(N)nc(Cl)nc54)[C@@H](F)[C@@H]3O)(C(=O)O)C(=O)O)cc2)cc1` [Example 153], the IC50 was 74 nM. Next, `Nc1nc(Cl)nc2c1ccn2[C@@H]1O[C@H](COC(Cc2ccc(C(=O)O)cc2)(C(=O)O)C(=O)O)[C@@H](O)[C@@H]1F` [Example 171]: 114 nM; `CC(C)(C)n1nnc(C(Cc2ccccc2)(OC[C@H]2O[C@@H](n3cnc4c(N)nc(Cl)nc43)[C@H](O)[C@H]2O)C(=O)O)n1` (some centres unmarked) [Example 204]: 7850 nM; `COc1ccccc1C(=O)Nc1ccc(CC(OC[C@H]2O[C@@H](n3cnc4c(N)nc(Cl)nc43)[C@@H](F)[C@@H]2O)(C(=O)O)C(=O)O)cc1` [Example 150]: 16 nM.

For the molecule `Nc1nc(Cl)nc2c1ncn2[C@@H]1O[C@H](COC(Cc2ccc(-c3cccs3)cc2)(C(=O)O)C(=O)O)[C@@H](O)[C@@H]1F` [Example 158], the IC50 was determined as 105 nM.

As to `Nc1nc(Cl)nc2c1ncn2[C@@H]1O[C@H](COC(Cc2ccsc2)(C(=O)O)C(=O)O)[C@@H](O)[C@@H]1F`, the IC50 is 206 nM. For `CC(C)(C)OC(=O)Nc1nc(N=[N+]=[N-])nc2c1ncn2[C@@H]1O[C@H](COC(Cc2cccc(C#N)c2)(C(=O)O)C(=O)O)[C@@H](O)[C@@H]1F` the value was 1790 nM; for `Nc1ncc(-c2ccc(CC(OC[C@H]3O[C@@H](n4cnc5c(N)nc(Cl)nc54)[C@@H](F)[C@@H]3O)(C(=O)O)C(=O)O)cc2)cn1` [Example 159], 76 nM.
